Entries after “also recorded” stand apart in the source; their conditions may differ.
Tests used:
Aurora A = target: T1, Aurora A (Homo sapiens, UniProt O14965); assay: Recombinant mitotic kinase assay, Aurora A; type: biochemical; conditions: recombinant kinases
T1 sequence (O14965 1-403): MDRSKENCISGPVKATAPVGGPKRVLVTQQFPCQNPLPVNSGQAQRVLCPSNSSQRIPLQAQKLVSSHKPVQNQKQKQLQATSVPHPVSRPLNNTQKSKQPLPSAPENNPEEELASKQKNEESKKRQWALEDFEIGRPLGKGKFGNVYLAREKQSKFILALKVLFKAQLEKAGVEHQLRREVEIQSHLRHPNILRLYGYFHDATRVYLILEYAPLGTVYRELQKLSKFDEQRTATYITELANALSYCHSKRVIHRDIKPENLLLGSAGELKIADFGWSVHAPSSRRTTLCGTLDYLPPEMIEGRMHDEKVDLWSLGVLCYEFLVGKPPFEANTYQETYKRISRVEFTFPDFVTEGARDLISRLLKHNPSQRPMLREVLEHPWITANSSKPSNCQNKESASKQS
Experimental: (§1) […] assays were performed with recombinant protein of the indicated mitotic kinase (left) and AMPK family kinases (right) in the presence of THZ-4-63-1. […] Cells were treated with nocodazole (100 ng/ml) for 18 h or not treated (Asyn., asynchronous). Nocodazole-arrested mitotic cells (M) were isolated via shake-off. The attached cells enriched in G2 phase (G2) were harvested. A portion of the mitotic cells were washed off nocodazole and released into G1 phase after 4 hours of incubation (G1). […] In Panel D, mitotic lysates were prepared from the indicated cells, and treated with λ-phosphatase at 30° C. In Panel E, nocodazole-arrested mitotic cells were treated with increasing concentration of THZ-4-63-1 for 30 min. Cell lysates were subjected to immunoblotting.
(§2) To discover a selective MELK inhibitor, a few molecule scaffolds with the potential of binding to MELK were identified, including 2,4-disubstituted pyrimidines and benzonaphthyridinones. […] To investigate if THZ-4-63-1 confers selective inhibition on MELK, we tested its effect on other mitotic kinases. In assays using recombinant kinases, MELK kinase activity was 20-fold more sensitive to THZ-4-63-1, than that of Aurora A, Aurora B, CDK1, or PLK1 (FIG. 1B).

MARK1 = MARK1 (Homo sapiens, UniProt Q9P0L2); assay: Recombinant AMPK family kinase assay, MARK1; type: biochemical; conditions: recombinant kinases
MARK1, sequence (Q9P0L2 whole entry, species assumed): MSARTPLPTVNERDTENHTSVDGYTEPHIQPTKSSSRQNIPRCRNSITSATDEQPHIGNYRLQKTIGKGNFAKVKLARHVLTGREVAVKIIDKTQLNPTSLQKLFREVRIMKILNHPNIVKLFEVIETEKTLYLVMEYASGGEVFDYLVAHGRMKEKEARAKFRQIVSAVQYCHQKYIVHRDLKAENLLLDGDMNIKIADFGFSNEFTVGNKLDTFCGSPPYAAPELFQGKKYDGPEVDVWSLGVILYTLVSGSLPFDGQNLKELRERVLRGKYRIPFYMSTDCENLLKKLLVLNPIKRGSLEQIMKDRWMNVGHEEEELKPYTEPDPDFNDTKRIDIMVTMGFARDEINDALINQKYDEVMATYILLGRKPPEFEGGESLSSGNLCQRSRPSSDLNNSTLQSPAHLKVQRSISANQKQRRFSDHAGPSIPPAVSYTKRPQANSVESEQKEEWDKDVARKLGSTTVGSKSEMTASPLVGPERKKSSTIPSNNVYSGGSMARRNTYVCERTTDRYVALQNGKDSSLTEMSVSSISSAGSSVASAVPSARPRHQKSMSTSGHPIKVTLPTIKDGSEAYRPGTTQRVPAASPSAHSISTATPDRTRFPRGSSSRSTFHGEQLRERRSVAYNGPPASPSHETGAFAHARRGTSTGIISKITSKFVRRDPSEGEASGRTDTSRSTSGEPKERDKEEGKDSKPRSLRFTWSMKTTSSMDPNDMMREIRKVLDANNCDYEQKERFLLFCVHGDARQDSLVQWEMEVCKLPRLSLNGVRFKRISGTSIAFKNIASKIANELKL
Experimental: as §1, §2

MELK = MELK (Homo sapiens, UniProt Q14680); assay: Electrophoretic mobility (auto-phosphorylation) of MELK in nocodazole-arrested mitotic cells, immunoblotting; type: cell-based; conditions: nocodazole-arrested mitotic cells (HeLa, MDA-MB-231), 30 min, increasing concentration
MELK, sequence (Q14680 whole entry): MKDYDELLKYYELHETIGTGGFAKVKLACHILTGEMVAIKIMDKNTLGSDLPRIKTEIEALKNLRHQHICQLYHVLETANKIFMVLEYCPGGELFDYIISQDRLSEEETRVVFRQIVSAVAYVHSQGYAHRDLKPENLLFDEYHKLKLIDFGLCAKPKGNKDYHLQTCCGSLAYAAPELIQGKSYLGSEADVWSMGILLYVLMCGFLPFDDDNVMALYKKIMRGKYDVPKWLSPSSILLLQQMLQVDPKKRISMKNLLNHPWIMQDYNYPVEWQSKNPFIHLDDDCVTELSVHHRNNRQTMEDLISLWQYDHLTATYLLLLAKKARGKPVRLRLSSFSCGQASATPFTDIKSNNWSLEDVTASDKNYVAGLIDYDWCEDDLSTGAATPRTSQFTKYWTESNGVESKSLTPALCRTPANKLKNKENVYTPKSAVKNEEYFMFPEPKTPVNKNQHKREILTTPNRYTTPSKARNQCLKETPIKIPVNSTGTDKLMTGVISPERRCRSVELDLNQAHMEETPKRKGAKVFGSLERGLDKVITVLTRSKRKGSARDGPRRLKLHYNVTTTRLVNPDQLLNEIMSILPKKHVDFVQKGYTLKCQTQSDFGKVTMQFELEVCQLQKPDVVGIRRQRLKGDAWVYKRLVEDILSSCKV
Experimental: as §1
(§3) Cell lysates were subjected to immunoblotting. […] The fluorescent signals of immunblotting were quantified using Image Studio Lite software (Licor Biosciences, Lincoln, Neb.). The signal of phosphorylated Aurora kinases was normalized to that of loading control (α-tubulin).
(§4) We next proceeded to test if THZ-4-63-1 inhibits MELK activity in vivo. With a lack of established kinase substrates of MELK during mitosis, we used the auto-phosphorylation of MELK as a surrogate to indicate the activity of MELK. […] We then harvested nocodazole-arrested mitotic cells, and treated cells with increasing concentrations of THZ-4-63-1.

Aurora kinases = assay: Aurora kinase phosphorylation in mitotic cells, immunoblotting; type: cell-based; conditions: 30 min
Experimental: as §3
Cell lysates were prepared for immunoblotting. In Panels B and C, THZ-4-63-1 inhibits H3T3 phosphorylation in HeLa (B) and U2OS (C) cells. Nocodazole arrested mitotic cells were treated with THZ-4-63-1 at the indicated doses for 30 min. […] Cell lysates were subjected to immunblotting. The signal of H3T3 phosphorylation was normalized to that of α-tubulin (right).
as §4
We exposed paclitaxel- or nocodazole-arrested mitotic cells to the individual inhibitor for 30 min in the presence of MG132, and collected lysates for examining signaling involved in chromosome alignment. […] Recent studies unravel a novel role of Aurora B in phosphorylating Haspin^7, a major factor responsible for phosphorylating Histone H3 at Thr3^14. […]

mitotic cells = assay: Mitotic cell death, time-lapse imaging; type: cell-based
Experimental: U2OS-GFP-H2B cells were treated with vehicle control (0.02% DMSO, v/v) or 1 μM THZ-4-63-1, and subjected to live imaging. Time is given in hours:minutes, relative to the initial time of drug treatment. The arrow points to chromosomes that haven't incorporated into the metaphase plate. […] MDA-MB-468 cells expressing tet-on-shMELK and GFPH2B cells were treated with doxycycline for three days, before subjected to live imaging. Panel D contains images of immunoblotting of lysates from cells treated as in Panel C. Panel E contains images showing mitotic cell death in a cell treated with THZ-4-63-1. The table indicates the quantification of cell death events. Panel F contains images showing that treatment with THZ-4-63-1 impairs chromosome alignment. Cells were treated with DMSO control, or THZ-4-63-1 (5 μM) for 4 hours, followed by MG132 (10 μM) for 1 h. Cells were fixed and stained with anti-CREST, anti-α-tubulin, and DAPI to visualize chromosomes and kinetochores. The histogram indicates the quantifications of cells in metaphase with misaligned chromosomes.
Perturbation of normal mitotic kinetic can lead to various cellular outcomes including cell death.

[1] = test system: Histone H3 phosphorylation at Thr3; assay: Histone H3 Thr3 phosphorylation in arrested mitotic cells, immunoblotting; type: cell-based; conditions: paclitaxel- or nocodazole-arrested mitotic cells, 30 min, with MG132
Experimental: Cell lysates were prepared for immunoblotting. […] HeLa cells were treated with DMSO or THZ-4-63-1 (5 μM) for 4 h followed by 1 h treatment of MG132 (10 μM). Cells were fixed and stained with anti-H3T3ph and anti-CREST. […] Cells were treated as in FIG. 2, Panel D, and additionally treated with MG132 (10 μM) for 1 h before fixation. The histogram indicates the quantification of H3S10ph signal. […] MCF-10A cells stably expressing empty vector (EV) or MELK were fixed for immunostaining. Images were captured with identical exposure time. H3T3ph intensity was quantified by the use of ImageJ. […] Recombinant MELK protein (kinase domain) was incubated with recombinant Histone H3 for 30 min at 30° C. Samples were subjected to immunoblotting using the indicated antibodies. […] Cells stably expressing GFP-MELK were fixed by formaldehyde and stained with anti-H3S10ph. […] Asynchronized (Async.) or nocodazole-arrested mitotic cells were subjected to fractionation, with sample prepared for immunoblotting. Panels H and I are images showing that MELK inhibition impairs the localization of chromosome passenger complex (CPC), indicated by the immunofluorescence detecting Survivin (G) and Aurora B (H). In addition to the presence of doxycyclin or THZ-4-63-1, cells were treated with nocodazole (0.33 μM) and MG132 (10 μM) for 3 h before fixation.
Cell lysates were prepared for immunoblotting. […]

SMILES: CN(C)Cc1ccc(-n2c(=O)ccc3cnc4ccc(-c5cc(Cl)c(O)c(Cl)c5)cc4c32)cc1 [THZ-4-63-1]
- MELK kinase activity more sensitive than that of Aurora A (Aurora A): 20 fold
- Selectivity for MELK over MARK1 (MARK1): preferentially targets MELK
- Electrophoretic mobility of mitotic MELK (MELK): increases the electrophoretic mobility of mitotic MELK; also recorded: readily altered the mobility shift in a dose-dependent manner
- Phosphorylation of Aurora kinases (Aurora kinases): lack of obvious inhibition; also recorded: did not inhibit
- Mitotic cell death (mitotic cells): efficiently induced mitotic cell death
- Histone H3 phosphorylation at Thr3 [1]: strong suppression

Reference: US10544138B2, “Tricyclic kinase inhibitors of MELK and methods of use” (Dana-Farber Cancer Institute, Inc., priority 2015, dated 2020)
